Read-outs that look alike come from different tables or passages of the source.
How the values were obtained:
[1] = target: KRAS-WT (Homo sapiens, UniProt P01116); test: SOS-catalyzed nucleotide exchange assay (Procedure A, TR-FRET), KRAS-WT; assay type: biochemical; conditions: nucleotide exchange, read-out: KRAS WT GNE IC50
Summary of the method: (§1)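 TR-FRET 520/495 nm ratio read after SOS-driven exchange of Bodipy-GDP for unlabeled GTP (3 mM) on biotinylated RAS bound to Tb-streptavidin. There was a 60 min compound preincubation, RT. Final RAS/SOS and reaction times: G12C 3 nM/40 nM; WT 1 nM/40 nM; NRAS 1.25 nM/40 nM, each 60 min. G12V was 1.25 nM/160 nM, 90 min.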

[2] = target: KRAS-G12D (Homo sapiens, UniProt P01116, G12D); test: SOS-catalyzed nucleotide exchange assay (Procedure A, TR-FRET), KRAS-G12D; assay type: biochemical; conditions: nucleotide exchange, read-out: KRAS G12D GNE IC50
Chain of KRAS-G12D (P01116 with tags, fused parts or gaps isoform P01116-2 G12D): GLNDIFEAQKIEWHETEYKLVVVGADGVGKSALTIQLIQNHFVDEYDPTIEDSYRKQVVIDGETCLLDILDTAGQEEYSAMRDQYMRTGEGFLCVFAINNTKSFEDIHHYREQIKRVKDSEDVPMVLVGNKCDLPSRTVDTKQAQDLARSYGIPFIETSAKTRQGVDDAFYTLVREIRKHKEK
Summary of the method: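 Signal ratio (520/495 nm, excitation 340 nm) reports Bodipy-GDP retention on biotinylated RAS after SOS-catalyzed exchange with 3 mM GTP. SOS was 40 nM, except 160 nM for G12V. Room-temperature exchange lasted 60 min (90 min for G12V), following a 60 min compound preincubation.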

[3] = target: KRAS-G12V (Homo sapiens, UniProt P01116, G12V); test: SOS-catalyzed nucleotide exchange assay (Procedure A, TR-FRET), KRAS-G12V; assay type: biochemical; conditions: nucleotide exchange, read-out: KRAS G12V GNE IC50
Chain of KRAS-G12V (P01116 with tags, fused parts or gaps isoform P01116-2 G12V): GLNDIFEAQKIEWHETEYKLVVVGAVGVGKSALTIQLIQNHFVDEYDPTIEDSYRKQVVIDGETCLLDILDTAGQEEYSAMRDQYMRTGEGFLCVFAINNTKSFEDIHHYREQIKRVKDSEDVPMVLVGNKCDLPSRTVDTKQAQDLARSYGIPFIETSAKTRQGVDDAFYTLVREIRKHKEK
Summary of the method: as §1

[4] = tested on: MKN-1 cells; test: Cellular phospho-ERK assay, MKN-1 cells (amplified wild-type KRAS); assay type: cell-based; conditions: Homo sapiens, read-out: MKN1 pERK IC50
Description: (§2) Procedure for Cellular Phospho-ERK Assay in KRAS Wild Type and Mutant (G12D, G12V) Cell Lines
(§3) MKN-1 cells (JCRB JCRB0252) containing amplified wild-type KRAS, were cultured in growth medium that contains RPMI 1640-GlutaMAX™-I (ThermoFisher Scientific 61870) containing 10% heat inactivated fetal bovine serum (ThermoFisher Scientific 10091148), 1 mM sodium pyruvate and 10 mM HEPES. PANC08.13 cells (ATCC® CRL-2551™), containing homozygous KRAS-G12D activating mutation, were cultured in growth medium made of RPMI1640-GlutaMAX™-I (ThermoFisher Scientific 61870) containing 15% heat inactivated fetal bovine serum (ThermoFisher Scientific 10091148)). AsPC-1 cells (ATCC® CRL-1682™), containing homozygous KRAS-G12D activating mutation, were cultured in T150 flask in growth medium (RPMI medium 1640-GlutaMAX™-I (ThermoFisher Scientific 61870) containing 10% fetal bovine serum (ThermoFisher Scientific 10091148)). SW620 cells (ATCC® […]), containing homozygous KRAS-G12V activating mutation, were cultured in growth medium that contains RPMI 1640-GlutaMAX™-I (ThermoFisher Scientific 61870) containing 10% heat inactivated fetal bovine serum (ThermoFisher Scientific 10091148).
(§4) Cells for the assay were harvested in growth medium after TrypLE (ThermoFisher scientific 12604021) digestion and were seeded in a 384-well collagen coated cell culture plate (Corning 356702) at a density of 10,000-15,000 cells/20 μL/well, and incubated at 37° C., 5% CO2 overnight. The compound (with 10 mM stock concentration) dose-response titrations were prepared [30 μM final ERK detection assay concentration and 1:3 dilutions, 10-point dose response] and appropriate amounts (270 nL) of test compounds were dispensed in a 384-well intermediate plate using an Echo 550 liquid handler. 30 μL/well of RPMI medium 1640-GlutaMAX™—I was added to the intermediate plate and the contents of the intermediate plate (10 μL/well) were then transferred to the 384-well collagen coated cell culture plate, which was incubated at 37° C., 5% CO2 for 2 hours. After removal of medium from the collagen coated cell culture plate, cells were lysed in lysis buffer from Alpha SureFire® Ultra™ Multiplex p-ERK and total ERK assay kit (PerkinElmer MPSU-PTERK) containing Halt™ Protease and Phosphatase inhibitor cocktail (ThermoFisher Scientific 78446) at room temperature with constant shaking at 300 rpm for 30 minutes. The cell lysates were then transferred to an OptiPlate-384 plate (PerkinElmer 6005620), and the phosphorylation of ERK (p-ERK) and total ERK levels were detected by Alpha SureFire® Ultra™ Multiplex p-EEK kit and total ERK assay kit (PerkinElmer MPSU-PTERK) following the manufacturer's protocol. Assay plates were read on a En Vision Multimode Plate Reader (PerkinElmer), and the ratio of p-ERK vs. total ERK in each well was used as the final readout. Dose response curves were analyzed using a 4-parameter logistic model to calculate IC50 values using Spotfire software.

[5] = tested on: AsPC-1 cells; test: Cellular phospho-ERK assay, AsPC-1 cells (homozygous KRAS-G12D); assay type: cell-based; conditions: Homo sapiens, ASPC1, 2 h, read-out: AsPC1 pERK IC50
Summary of the method: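 Inhibition of ERK phosphorylation was determined after treating attached cells with compound for 2 h; top concentration 30 μM, serial 1:3 dilution. Each well's p-ERK:total ERK ratio, read by SureFire Ultra, was fitted with a four-parameter model for IC50.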

[6] = tested on: SW620 cells; test: Cellular phospho-ERK assay, SW620 cells (homozygous KRAS-G12V); assay type: cell-based; conditions: Homo sapiens, read-out: SW620 pERK IC50
Description: as §2, §3, §4

[7] = SW-620, 2 hours compound incubation
[8] = amplified wild-type KRAS, 2 hours

Chain of KRAS-WT (P01116 with tags, fused parts or gaps isoform P01116-2): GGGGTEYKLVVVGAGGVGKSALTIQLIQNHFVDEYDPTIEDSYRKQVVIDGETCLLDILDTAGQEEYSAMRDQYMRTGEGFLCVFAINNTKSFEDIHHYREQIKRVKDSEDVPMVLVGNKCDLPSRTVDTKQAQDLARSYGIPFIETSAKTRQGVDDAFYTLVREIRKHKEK

IC50 ([4]; 2 hours compound incubation) [nM] | IC50 ([5]; 2 hours compound incubation) [nM] | IC50 [6, 7] [nM] | SMILES | IC50 [1] [nM] | IC50 [2] [nM] | IC50 [3] [nM] | IC50 [4, 8] [nM] | IC50 ([5]; KRAS-G12D, 2 hours) [nM] | IC50 ([6]; SW-620, KRAS-G12V, 2 hours) [nM]
25.8 | 31.4 | 13 | CCc1csc2cc3[nH]ncc3c(-c3nccc4c3sc3nc(OC[C@@]56CCCN5C[C@H](F)C6)nc(N5CCOC[C@@](C)(O)C5)c34)c12 [Ex-168, (6S)-4-(8-(5-ethyl-1H-thieno[3,2-f]indazol-4-yl)-2-(((2R,7aS)-2-fluorotetrahydro-1H-pyrrolizin-7a(5H)-yl)methoxy)pyrido [4′,3′:4,5]thieno[2,3-d]pyrimidin-4-yl)-6-methyl-1,4-oxazepan-6-ol] | 7.25 | 3.17 | 5.49 |  |  | 
 |  |  | Cc1cc2[nH]ncc2c(-c2nccc3c2sc2nc(OC[C@@]45CCCN4C[C@H](F)C5)nc(N4CCOC[C@@](C)(O)C4)c23)c1-c1ccc(F)o1 [Ex-72, (6S)-4-(8-(5-(5-fluorofuran-2-yl)-6-methyl-1H-indazol-4-yl)-2-(((2R,7aS)-2-fluorotetrahydro-1H-pyrrolizin-7a(5H)-yl)methoxy)pyrido[4′,3′:4,5]thi-eno[2,3-d]pyrimidin-4-yl)-6-methyl-1,4-oxazepan-6-ol] | 53.9 | 15 | 35.3 | 82.4 | 139 | 53.8
 |  |  | C[C@@]1(O)COCCN(c2nc(OC[C@@]34CCCN3C/C(=C\F)C4)nc3sc4c(-c5c(C6CC6)c(C(F)(F)F)cc6[nH]ncc56)nccc4c23)C1 [Ex-87, (6S)-4-(8-(5-cyclopropyl-6-(trifluoromethyl)-1H-indazol-4-yl)-2-(((S,Z)-2-(fluoromethylene)tetrahy-dro-1H-pyrrolizin-7a(5H)-yl)methoxy)pyrido[4′,3′:4,5]thi-eno[2,3-d]pyrimidin-4-yl)-6-methyl-1,4-oxazepan-6-ol] | 80 | 41.6 | 31.4 | 109 | 176 | 96.6
66.4 | 48.3 | 42.9 | C[C@@]1(O)COCCN(c2nc(OC[C@]3(CN4CC5(COC5)C4)CC3(F)F)nc3sc4c(-c5c(C6CC6)c(Cl)cc6[nH]ncc56)nccc4c23)C1 [Ex-213, (6S)-4-(2-(((R)-1-((2-oxa-6-azaspiro [3.3]heptan-6-yl)-methyl)-2,2-difluoro-cyclopropyl)meth-oxy)-8-(6-chloro-5-cyclopropyl-1H-indazol-4-yl)pyrido [4′,3′:4,5]thieno [2,3-d]pyrimidin-4-yl)-6-methyl-1,4-oxazepan-6-ol] | 12.2 | 3.5 | 11.2 |  |  | 
 |  |  | C[C@@]1(O)COCCN(c2nc(OC[C@@]34CCCN3C[C@H](F)C4)nc3c(F)c4c(-c5c(C6CC6)c(Cl)cc6[nH]ncc56)nccn4c23)C1 [Ex-305, (S)-4-(9-(6-chloro-5-cyclopropyl-1H-indazol-4-yl)-10-fluoro-2-(((2R,7aS)-2-fluorotetrahydro-1H-pyrrolizin-7a(5H)-yl)methoxy)pyrazino[1′,2′:1,5]pyrrolo[3,2-d]pyrimidin-4-yl)-6-methyl-1,4-oxazepan-6-ol] | 37 | 11.6 | 23.8 | 93 | 212 | 54.7
44.4 | 24 | 14.5 | CN(C)C[C@@]1(COc2nc(N3CCOC[C@@](C)(O)C3)c3c(n2)sc2c(-c4c(C5(F)CC5)c(Cl)cc5[nH]ncc45)nccc23)CC1(F)F [Ex-132, (6S)-4-(8-(6-chloro-5-(1-fluorocyclo-propyl)-1H-indazol-4-yl)-2-(((R)-1-((dimethylamino)-methyl)-2,2-di-fluorocyclopropyl)-methoxy)pyrido [4′,3′:4,5]thieno[2,3-d]pyrimidin-4-yl)-6-methyl-1,4-oxaze-pan-6-ol] | 15.7 | 5.45 | 13.9 |  |  | 

Source: patent publication US20260176289A1, “SMALL MOLECULE INHIBITORS OF KRAS PROTEINS” (Merck Sharp & Dohme LLC, priority 2022, published 2026)
